The text below walks through data of ChEMBL document CHEMBL1933028, “Discovery of cyclic amine-substituted benzoic acids as PPARα agonists” (Bioorg Med Chem Lett, 2012).

Series [1] addresses T1, Peroxisome proliferator-activated receptor gamma (Homo sapiens, UniProt P37231).
T1 sequence (P37231 whole entry): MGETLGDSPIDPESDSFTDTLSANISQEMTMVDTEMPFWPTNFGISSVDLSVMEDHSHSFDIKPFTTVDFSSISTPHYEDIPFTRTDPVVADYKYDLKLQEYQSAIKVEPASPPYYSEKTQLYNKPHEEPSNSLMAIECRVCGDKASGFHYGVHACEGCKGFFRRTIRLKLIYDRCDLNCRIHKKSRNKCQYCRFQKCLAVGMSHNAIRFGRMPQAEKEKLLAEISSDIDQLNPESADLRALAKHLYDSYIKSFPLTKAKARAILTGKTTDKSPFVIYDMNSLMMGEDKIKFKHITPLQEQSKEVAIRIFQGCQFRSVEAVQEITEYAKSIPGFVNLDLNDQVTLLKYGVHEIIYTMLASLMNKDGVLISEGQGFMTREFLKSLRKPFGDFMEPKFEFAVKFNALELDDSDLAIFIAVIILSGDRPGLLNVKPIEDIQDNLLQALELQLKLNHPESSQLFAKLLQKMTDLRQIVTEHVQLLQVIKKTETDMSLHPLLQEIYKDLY
As to the kind of experiment: Transactivation of human PPARgamma expressed in CHO-K1 cells. Format: cell-based.

A short description of series [2]: Agonist activity at hamster PPARalpha. Format: functional, Cricetinae.
For series [3], the target named is T2, Peroxisome proliferator-activated receptor alpha (Rattus norvegicus, UniProt P37230).
T2 sequence (P37230 whole entry): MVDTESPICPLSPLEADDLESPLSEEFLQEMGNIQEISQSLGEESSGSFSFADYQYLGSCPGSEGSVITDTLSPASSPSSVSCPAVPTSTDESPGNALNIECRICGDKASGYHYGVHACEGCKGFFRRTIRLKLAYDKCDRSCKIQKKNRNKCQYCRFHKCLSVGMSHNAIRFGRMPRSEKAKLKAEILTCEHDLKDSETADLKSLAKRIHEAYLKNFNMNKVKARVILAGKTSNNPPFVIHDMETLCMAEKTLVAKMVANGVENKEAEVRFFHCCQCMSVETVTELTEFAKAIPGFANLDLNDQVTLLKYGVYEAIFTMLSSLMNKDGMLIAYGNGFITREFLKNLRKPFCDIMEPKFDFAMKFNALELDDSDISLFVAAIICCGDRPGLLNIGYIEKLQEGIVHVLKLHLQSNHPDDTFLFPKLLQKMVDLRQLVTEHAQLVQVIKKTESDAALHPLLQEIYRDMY
As to the kind of experiment: Agonist activity at rat PPARalpha. Format: functional.

In series [4] the target is T3, Peroxisome proliferator-activated receptor gamma (Rattus norvegicus, UniProt O88275).
T3 sequence (O88275 whole entry): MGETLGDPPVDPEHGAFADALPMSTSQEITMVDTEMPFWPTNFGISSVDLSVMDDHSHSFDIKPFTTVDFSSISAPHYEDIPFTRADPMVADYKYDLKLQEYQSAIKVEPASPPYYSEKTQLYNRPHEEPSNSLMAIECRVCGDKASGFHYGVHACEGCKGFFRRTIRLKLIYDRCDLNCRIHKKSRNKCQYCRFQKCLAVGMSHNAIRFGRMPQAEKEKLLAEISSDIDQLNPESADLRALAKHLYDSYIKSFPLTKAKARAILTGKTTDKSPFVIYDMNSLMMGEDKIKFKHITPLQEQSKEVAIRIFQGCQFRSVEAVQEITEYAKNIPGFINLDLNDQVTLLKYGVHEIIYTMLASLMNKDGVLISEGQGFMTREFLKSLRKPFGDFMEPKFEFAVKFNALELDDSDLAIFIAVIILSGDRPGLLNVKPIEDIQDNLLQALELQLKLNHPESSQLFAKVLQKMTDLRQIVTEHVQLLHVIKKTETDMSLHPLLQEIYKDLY
As to the kind of experiment: Agonist activity at rat PPARgamma. Format: functional.

The next series has as its system Rattus norvegicus. In words: Volume of distribution at steady state in rat at 1 mg/kg, po. Format: ADME, organism-based. More on the design: dose 1 mg/kg, route oral. The conditions noted are these: in vivo.
Series [5] is described as follows: Total clearance in dog at 0.3 mg/kg, po. Type of series: ADME, organism-based, Canis lupus familiaris. More on the design: dose 0.3 mg/kg, route oral. The conditions noted are these: in vivo.
The nature of series [6]: Cmax in dog at 0.3 mg/kg, po. Type of series: ADME, organism-based, Canis lupus familiaris. More on the design: dose 0.3 mg/kg, route oral. The conditions noted are these: in vivo.
For series [7], the system named is Canis familiaris. As to the kind of experiment: Antidyslipidemic activity in high-fat diet fed dog assessed as decrease in free fatty acid at 0.003 mg/kg, po administered QD for 1 week (reference value: 0.624 +/- 0.057 mEq/L). Format: functional, Canis lupus familiaris.
The subject of series [8] is Canis familiaris. As to the kind of experiment: Antidyslipidemic activity in high-fat diet fed dog assessed as decrease in total cholesterol at 0.01 mg/kg, po administered QD for 1 week (reference value: 205 +/- 6 mg/dL). Type of series: functional, Canis lupus familiaris.

`Cc1nc(-c2ccc(Cl)cc2)sc1C(=O)N[C@H]1CCCN(c2cccc(C(=O)O)c2)C1`: the EC50 in [1] worked out at 9.6 µM; in series [2], 0.61 µM; in series [3], 3.6 µM; in series [4], 13 µM. For the same compound, in the series on Rattus norvegicus, the Vdss stood at 0.832 L/kg. The CL/F in series [5] was found to be 0.02 L/h/kg. The maximum concentration (Cmax) in series [6] came out at 0.295 µg/mL. The Activity in the series on Canis familiaris [7] worked out at 0.607 mEq/L; in the series on Canis familiaris [8], 176 mg/dL.
